According to patent publication US12023315B2, “Pharmaceutical compositions and methods utilizing neostigmine and an NK-1 antagonist for treating myasthenia gravis” (priority 2017, dated 2024):

Test system: gastro-intestinal side effects of neostigmine in human subjects
Experiment: Phase I single-blind, placebo-controlled study: single oral neostigmine bromide with or without single oral aprepitant
Type: in vivo
Conditions: human volunteers; single oral aprepitant (up to 125 mg) co-administered with first intolerable oral dose (FID) of neostigmine bromide; follow-up up to 8 hours
Protocol: The ability of the NK1-antagonists for preventing the adverse effects of orally administered neostigmine bromide in humans is tested.
A Phase I study is conducted in human subjects receiving a single oral dose of neostigmine bromide with or without a single oral dose of aprepitant hydrochloride dihydrate, as a representative NK1-antagonist. The study is a single center, single-blind, placebo-controlled study.
To be enrolled in the study, participants are to meet the following inclusion/exclusion criteria:
Key Inclusion Criteria • 1. Male or female volunteers between the ages of 18 and 60 years inclusive are required to be in good health, to refrain from consuming xanthine, quinine and caffeine containing beverages, and to refrain from prolonged intensive physical exercise during the study conduct. • 2. […] Subjects had to be in good health according to their medical history including personal and family psychiatric history, physical examination, ECG, vital signs, and laboratory tests. […] Subjects had to be able to swallow multiple pills simultaneously.
Key Exclusion Criteria • 1. Any clinically relevant acute or chronic disease which could interfere with the subjects' safety during the trial, expose them to undue risk, or interfere with the study objectives. • 2. […]

C[C@@H](O[C@H]1OCCN(Cc2nc(=O)[nH][nH]2)[C@H]1c1ccc(F)cc1)c1cc(C(F)(F)F)cc(C(F)(F)F)c1 [aprepitant, 5-[[(2R,3S)-2-[(1R)-1-[3,5-bis(trifluoromethyl)phenyl]ethoxy]-3-(4-fluorophenyl)-4-morpholinyl]methyl]-1,2-dihydro-3H-1,2,4-triazol-3-one]
occurrence of gastro-intestinal AEs with neostigmine: prevents or attenuates the occurrence of gastro-intestinal AEs
